How the values were obtained:
[1] = target: T1, OCT2 (Homo sapiens, UniProt O15244); experiment: in vitro; details: for IC50 values, OCT2-mediated metformin transport (in words): potent inhibitors, confirmed previous findings [19]-[21]
[2] = target: T1, OCT2; experiment: Inhibition of OCT2-mediated [3H]MPP+ uptake in HEK-OCT2 cells
[3] = tested on: OCT2; parameters: method as in earlier work; details: drug 20 μM; HEK 293 cells overexpressing OCT2; ref 7 (Kido et al.); cited from earlier work
[4] = cited from earlier work
[5] = ref 16 (Regenthal et al.), cited from earlier work; for Cmax,u: Cmax of unbound drug in humans; for Cmax: maximum steady-state plasma concentration in humans
[6] = test drug 20 µM, MPP+ 50 μM, 3 min, net uptake HEK-OCT2 minus HEK-VC
[7] = test drug 200 µM, MPP+ 50 μM, 3 min, net uptake HEK-OCT2 minus HEK-VC
[8] = coadministration of lansoprazole
[9] = coadministration with pantoprazole

T1 sequence (O15244 whole entry): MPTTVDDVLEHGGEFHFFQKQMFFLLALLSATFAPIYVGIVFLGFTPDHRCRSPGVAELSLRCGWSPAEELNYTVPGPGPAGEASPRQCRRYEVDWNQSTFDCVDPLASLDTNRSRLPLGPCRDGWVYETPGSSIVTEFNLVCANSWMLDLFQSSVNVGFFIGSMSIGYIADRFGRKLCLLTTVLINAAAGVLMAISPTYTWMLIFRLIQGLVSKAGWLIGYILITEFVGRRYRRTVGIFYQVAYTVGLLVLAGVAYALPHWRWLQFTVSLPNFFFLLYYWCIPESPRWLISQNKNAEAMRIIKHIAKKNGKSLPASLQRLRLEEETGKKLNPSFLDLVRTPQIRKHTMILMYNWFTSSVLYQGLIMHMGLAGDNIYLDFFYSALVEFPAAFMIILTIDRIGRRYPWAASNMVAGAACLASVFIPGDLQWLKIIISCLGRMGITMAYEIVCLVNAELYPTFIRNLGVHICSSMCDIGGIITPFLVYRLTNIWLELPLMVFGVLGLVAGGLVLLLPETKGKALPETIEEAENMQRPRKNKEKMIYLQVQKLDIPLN

Row | SMILES | % Inhibition of OCT2-dependent MF uptake at 200 µM (mean ± SEM) ([1]; human, pH 7.3) | % Inhibition of OCT2-dependent MPP+ uptake at 20 µM (mean ± SEM) [2, 6] | % Inhibition of OCT2-dependent MPP+ uptake at 200 µM (mean ± SEM) [2, 7] | % Inhibition of OCT2-dependent MF uptake at 20 µM (mean ± SEM) ([1]; human, pH 7.3) | further results
1 | CN(C)CCCN1c2ccccc2CCc2ccc(Cl)cc21 [Clomipramine] | 99.5 ± 3.7 | 90.3 ± 1.5% | 98.8 ± 3.0% | – | Inhibition of OCT2-mediated ASP+ uptake [3]: more than 50%
2 | Cc1c(OCC(F)(F)F)ccnc1C[S+]([O-])c1nc2ccccc2[nH]1 (centres unmarked) [Lansoprazole] | 103.0 ± 2.7 | 22.1 ± 5.3% | 90.1 ± 1.8% | 87.7 ± 1.6 | IC50 ([1]; human, pH 7.3): 3280 nM; IC50 values, OCT2-mediated metformin transport (in words) [1]: low micromolar range; Decrease of metformin renal clearance [4, 8]: 13%; Increase of AUC of metformin [4, 8]: 17%; Increase of Cmax of metformin [4, 8]: 15%; Cmax,u [5]: 1200 nM; Cmax [5]: 6000 nM
3 | COc1ccnc(C[S+]([O-])c2nc3ccc(OC(F)F)cc3[nH]2)c1OC (centres unmarked) [Pantoprazole] | 98.9 ± 0.6 | – | – | – | IC50 ([1]; human, pH 7.3): 560 nM; % Inhibition of OCT2-dependent MPP+ uptake at 200 µM (mean ± SEM) ([2]; human, pH 7.3): 101.7 ± 4.4; AUC for metformin greater following coadministration [4, 9]: 15%; Cmax for metformin greater following coadministration [4, 9]: 15%; Cmax,u [5]: 230 nM; Cmax [5]: 11400 nM
4 | NC(=O)CN1CCCC1=O [Piracetam] | 2.5 ± 1.7 | -9.5 ± 12.1% | -0.5 ± 10.0% | 3.4 ± 3.4 | –
5 | CC[C@H](C)C(=O)O[C@H]1C[C@H](O)C=C2C=C[C@H](C)[C@H](CC[C@@H](O)C[C@@H](O)CC(=O)O)[C@H]21 [Pravastatin] | -11.1 ± 11.1 | -30.2 ± 5.5% | -15.0 ± 5.2% | -26.3 ± 11.1 | –
6 | C[C@]12C=CC(=O)C=C1CC[C@@H]1[C@@H]2[C@@H](O)C[C@@]2(C)[C@H]1CC[C@]2(O)C(=O)CO [Prednisolone] | 91.5 ± 0.5 | 42.1 ± 4.4% | 68.6 ± 2.8% | 66.0 ± 2.5 | –
7 | CC(C)C[C@H](CN)CC(=O)O [Pregabalin] | 27.2 ± 5.9 | – | – | -1.3 ± 9.0 | % Inhibition of OCT2-dependent MPP+ uptake at 20 µM (mean ± SEM) ([2]; human, pH 7.3): -29.6 ± 7.5; % Inhibition of OCT2-dependent MPP+ uptake at 200 µM (mean ± SEM) ([2]; human, pH 7.3): -15.8 ± 5.2
8 | CC(CN1c2ccccc2Sc2ccccc21)N(C)C (centres unmarked) [Promethazine] | 100.7 ± 1.3 | 5.7 ± 3.8% | 76.0 ± 3.0% | 83.7 ± 3.3 | –
9 | CCOC(=O)[C@H](CCc1ccccc1)N[C@@H](C)C(=O)N1[C@H](C(=O)O)C[C@@H]2CCC[C@@H]21 [Ramipril] | 35.4 ± 2.9 | 72.5 ± 7.4% | 83.6 ± 6.2% | 12.9 ± 4.1 | –
10 | CNC(=C[N+](=O)[O-])NCCSCc1ccc(CN(C)C)o1 [Ranitidine] | 91.5 ± 3.8 | -7.9 ± 12.9% | 11.6 ± 3.4% | 65.2 ± 7.7 | –
11 | Cc1nc2n(c(=O)c1CCN1CCC(c3noc4cc(F)ccc34)CC1)CCCC2 [Risperidone] | 98.3 ± 3.1 | 57.8 ± 5.2% | 78.4 ± 1.5% | 81.0 ± 4.4 | –
12 | CCN(C)C(=O)Oc1cccc([C@H](C)N(C)C)c1 [Rivastigmine] | 91.4 ± 1.5 | 25.1 ± 9.1% | 59.4 ± 4.6% | 51.8 ± 4.0 | –
13 | CN[C@H]1CC[C@@H](c2ccc(Cl)c(Cl)c2)c2ccccc21 [Sertraline] | 100.5 ± 0.7 | 43.6 ± 2.9% | 96.1 ± 1.7% | 88.4 ± 2.1 | IC50 values, OCT2-mediated metformin transport (in words) [1]: low micromolar range
14 | CCC(C)(C)C(=O)O[C@H]1C[C@@H](C)C=C2C=C[C@H](C)[C@H](CC[C@@H]3C[C@@H](O)CC(=O)O3)[C@H]21 [Simvastatin lactone] | 57.6 ± 10.0 | 48.5 ± 9.0% | 53.8 ± 13.1% | -15.4 ± 5.5 | –
15 | N[C@@H](CC(=O)N1CCn2c(nnc2C(F)(F)F)C1)Cc1cc(F)c(F)cc1F [Sitagliptin] | 97.5 ± 0.1 | -8.2 ± 7.8% | 22.7 ± 6.0% | 85.9 ± 1.1 | IC50 ([1]; human, pH 7.3): 7410 nM; IC50 values, OCT2-mediated metformin transport (in words) [1]: low micromolar range; Effect on steady-state pharmacokinetics of either agent ([4]; co-administration of sitagliptin and metformin, patients with type 2 diabetes): did not meaningfully alter; Cmax,u [5]: 1500 nM; Cmax [5]: 2300 nM
16 | CC(=O)S[C@@H]1CC2=CC(=O)CC[C@]2(C)[C@H]2CC[C@@]3(C)[C@@H](CC[C@@]34CCC(=O)O4)[C@H]12 [Spironolactone] | 98.4 ± 1.0 | 33.5 ± 4.7% | 95.0 ± 0.5% | – | Cmax,u / IC50 [1]: 0.02; IC50 ([1]; human, pH 7.3): 1290 nM; Cmax,u [5]: 20 nM; Cmax [5]: 1200 nM
17 | CCOc1ccccc1OCCN[C@H](C)Cc1ccc(OC)c(S(N)(=O)=O)c1 [Tamsulosin] | 107.0 ± 3.1 | 14.9 ± 4.8% | 65.7 ± 2.9% | – | –
18 | Cn1c(=O)c2[nH]cnc2n(C)c1=O [Theophylline] | -36.6 ± 10.9 | -12.9 ± 5.7% | -16.7 ± 6.8% | -21.5 ± 13.0 | –
19 | Cc1cccc(Nc2ccncc2S(=O)(=O)NC(=O)NC(C)C)c1 [Torasemide] | -19.5 ± 0.8 | -11.4 ± 2.3% | -40.3 ± 5.0% | -33.2 ± 5.0 | –
20 | COc1cccc(C2(O)CCCCC2CN(C)C)c1 (centres unmarked) [Tramadol] | 103.7 ± 9.2 | – | – | 47.1 ± 9.5 | % Inhibition of OCT2-dependent MPP+ uptake at 20 µM (mean ± SEM) ([2]; human, pH 7.3): 5.9 ± 7.9; % Inhibition of OCT2-dependent MPP+ uptake at 200 µM (mean ± SEM) ([2]; human, pH 7.3): 31.4 ± 1.4
21 | Nc1nc(N)c2nc(-c3ccccc3)c(N)nc2n1 [Triamterene] | 92.0 ± 2.1 | 6.6 ± 11.2% | 17.5 ± 3.8% | 48.0 ± 5.1 | –
22 | O=C(O[C@H]1C[C@H]2CC[C@@H](C1)[N+]21CCCC1)C(O)(c1ccccc1)c1ccccc1 [Trospium chloride] | 98.8 ± 0.4 | 83.2 ± 2.2% | 96.7 ± 0.7% | – | IC50 ([1]; human, pH 7.3): 70 nM; Effect on metformin renal clearance and steady-state pharmacokinetics ([4]; trospium chloride coadministration, healthy volunteers): did not alter; Cmax,u [5]: 10 nM; Cmax [5]: 30 nM
23 | CCCC(CCC)C(=O)O [Valproic acid] | 27.7 ± 1.9 | -17.3 ± 9.5% | -29.0 ± 9.2% | 18.5 ± 7.6 | –
24 | CCCCC(=O)N(Cc1ccc(-c2ccccc2-c2nnn[nH]2)cc1)[C@H](C(=O)O)C(C)C [Valsartan] | – | – | – | – | inhibition at 3 min, 20 µM ([1]; human, pH 7.3): -41.7 ± 1.8%; inhibition at 3 min, 200 µM ([1]; human, pH 7.3): -12.9 ± 3.6%; inhibition at 3 min, 20 µM ([2]; human, pH 7.3): -77.2 ± 6%; inhibition at 3 min, 200 µM ([2]; human, pH 7.3): -82.1 ± 9.9%
25 | COc1ccc(C(CN(C)C)C2(O)CCCCC2)cc1 (centres unmarked) [Venlafaxine] | 72.2 ± 2.5 | -43.3 ± 13.0% | -54.3 ± 13.1% | 17.6 ± 3.2 | –
26 | Cc1cccc(C)c1NC(=O)c1cc(S(N)(=O)=O)c(Cl)cc1O [Xipamide] | 9.4 ± 9.2 | 10.5 ± 3.7% | 6.6 ± 9.3% | -22.3 ± 9.7 | –
27 | Cc1ccc(-c2nc3ccc(C)cn3c2CC(=O)N(C)C)cc1 [Zolpidem] | 99.1 ± 0.5 | – | – | – | IC50 ([1]; human, pH 7.3): 150 nM; % Inhibition of OCT2-dependent MPP+ uptake at 20 µM (mean ± SEM) ([2]; human, pH 7.3): 36.5 ± 4.3; % Inhibition of OCT2-dependent MPP+ uptake at 200 µM (mean ± SEM) ([2]; human, pH 7.3): 90.7 ± 8.2; Cmax,u [5]: 50 nM; Cmax [5]: 650 nM
